Assay results as given in patent US20240300904A1, “PYRIDAZINONES FOR THE TREATMENT OR PREVENTION OF HYPERTENSION” (UNIVERSITETET I OSLO, priority 2021, published 2024).

How the values were obtained:
[1] = biological target: T1, human (h) natriuretic peptide receptor A (hNPR-A) (Homo sapiens, UniProt P16066); experiment: AlphaScreen assay for cGMP: BNP-mediated NPR-A activity (cGMP production); assay type: cell-based; settings: conc. response of compound + 0.1 nM BNP; for EC50: NPR-A-expressing HEK293 cells, read-out: -LogEC50 (compound) (converted); for Emax: percentage of maximum BNP-mediated cGMP production, read-out: Max Response
T1 construct: expressed in transfected cells
T1 sequence (P16066 33-1061): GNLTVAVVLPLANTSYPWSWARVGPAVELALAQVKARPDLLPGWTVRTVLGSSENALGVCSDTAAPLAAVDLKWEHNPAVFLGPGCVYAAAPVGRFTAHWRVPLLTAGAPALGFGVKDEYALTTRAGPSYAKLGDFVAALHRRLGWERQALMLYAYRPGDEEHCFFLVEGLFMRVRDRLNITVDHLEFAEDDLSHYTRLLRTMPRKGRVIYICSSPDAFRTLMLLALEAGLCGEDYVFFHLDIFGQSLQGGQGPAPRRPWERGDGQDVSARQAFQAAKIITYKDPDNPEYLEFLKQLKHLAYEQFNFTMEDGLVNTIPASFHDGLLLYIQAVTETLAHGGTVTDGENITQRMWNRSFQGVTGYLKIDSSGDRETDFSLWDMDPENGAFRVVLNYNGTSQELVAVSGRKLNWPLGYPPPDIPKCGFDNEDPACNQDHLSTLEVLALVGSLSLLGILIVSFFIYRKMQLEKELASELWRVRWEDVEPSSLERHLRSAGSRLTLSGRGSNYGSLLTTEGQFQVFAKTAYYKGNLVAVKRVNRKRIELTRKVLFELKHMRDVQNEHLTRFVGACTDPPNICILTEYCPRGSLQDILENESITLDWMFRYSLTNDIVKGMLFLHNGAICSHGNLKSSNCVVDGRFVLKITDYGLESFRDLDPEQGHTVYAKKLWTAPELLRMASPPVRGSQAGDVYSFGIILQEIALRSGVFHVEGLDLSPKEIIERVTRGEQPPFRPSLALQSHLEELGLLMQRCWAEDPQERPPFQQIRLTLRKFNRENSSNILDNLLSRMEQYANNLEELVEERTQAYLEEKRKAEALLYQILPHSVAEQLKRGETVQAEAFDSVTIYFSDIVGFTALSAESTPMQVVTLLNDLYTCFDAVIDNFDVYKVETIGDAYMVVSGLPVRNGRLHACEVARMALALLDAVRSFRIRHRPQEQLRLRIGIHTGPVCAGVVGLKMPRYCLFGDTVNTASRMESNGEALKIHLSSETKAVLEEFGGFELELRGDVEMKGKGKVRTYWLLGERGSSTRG
T1 sequence (P16860 103-134 partner limits assumed): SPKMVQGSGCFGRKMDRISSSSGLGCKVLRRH
Protocol: (§1) QBIHEK293A cells stably transfected with human (h) natriuretic peptide receptor A (hNPR-A) and hNPR-B were made as described in Bach et al., Naunyn Schmiedebergs Arch. Pharmacol. 2014; 387:5-14. Cells were grown in DMEM (Dulbecco's Modified Eagle's Medium, Gibco®, ThermoFischer Scientific) supplemented with 10% Fetal Bovine Serum (FBS), 100 U/ml penicillin, 0.1 mg/ml streptomycin, and 0.4 mg/ml G418 (geneticin) as selection antibiotic.
(§2) The AlphaScreen assay for cGMP (Perkin Elmer) was performed as described in Bach et al. (see above). NPR-A and NPR-B expressing HEK293 cells were split the day before the experiment and harvested using an EDTA solution (Versene, Invitrogen, ThermoFischer Scientific). A final concentration of 6000 cells/well was re-suspended in stimulation buffer (5 mM HEPES in HBSS at pH 7.4, 0.1% BSA) with IBMX (0.7 mM final). Compounds were dissolved in stimulation buffer and added to wells in increasing concentrations. Cells were incubated with the indicated compounds 20 minutes before addition of agonists (human BNP, human CNP or human proBNP) in various concentrations. Cells were stimulated for 20 minutes with agonist before the reactions were stopped (i.e. cells lysed) by adding the AlphaScreen Acceptor bead mix (Acceptor beads-anti-cGMP antibody and 0.5% Tween-20 in 5 mM HEPES buffer at pH 7.4). After 1 hour incubation, the Donor bead mix (Donor beads, biotinylated cGMP, 0.5% Tween-20 in 5 mM HEPES buffer at pH 7.4) was added (40 μl total volume) and incubation continued for 2 hours. The luminescence signals were analyzed quantitatively by reading of the plates on the EnVision® Multilabel Plate Reader (Perkin Elmer) using AlphaScreen emission 570 nm filter.

NPR-A = biological target: T2, NPR-A (Homo sapiens, UniProt P16066); experiment: Whole-cell binding assays with 125I-ANP in intact NPR-A expressing HEK293 cells
T2 construct: expressed in transfected cells; host or cells: HEK293 cells expressing NPR-A
T2 sequence (P16066 33-1061): T1 sequence (P16066 33-1061)
Protocol: as §1
Binding assays were carried out in intact NPR-A expressing HEK293 cells as described in Dickey et al., J Biol Chem. 2009; 284: 19196-202.

HeLa cells = experiment: MTT assay (cytotoxicity); assay type: cell-based; settings: 24 and 48 h, compared with compounds 3 and 11
Protocol: Cells were incubated for 24 and 48 h with increasing concentrations of the indicated compound. The data represent formazan formation (absorbance) as a percentage of the negative control (1% DMSO).
The MTT (3-(4,5-dimethylthiazol-2-yl)-2,5-diphenyltetrazolium bromide) tetrazolium reduction assay was used to measure cytotoxicity of the compounds in vitro. Viable cells with active metabolism convert MTT into a purple colored formazan product with an absorbance maximum near 570 nm. HeLa cells were plated in 96-well plates in culture medium (DMEM (Dulbecco's Modified Eagle's Medium, Gibco®, ThermoFischer Scientific) supplemented with 10% Fetal Bovine Serum (FBS), 100 U/ml penicillin, 0.1 mg/ml streptomycin) the day before experiments. Cells were incubated for 24 or 48 h at 37° C. with increasing concentrations of each compound (in 1% DMSO). 1% DMSO and 20 mM H2O2 in culture medium were used as negative and positive control, respectively. MTT solution at a final concentration of 0.45 mg/ml was added to the wells and cells incubated for 1 to 4 hours at 37° C. Solubilization solution (40% (vol/vol) dimethylformamide (DMF), 2% (vol/vol) glacial acetic acid and 16% (wt/vol) sodium dodecyl sulfate (SDS)) was added to each well to dissolve formazan crystals. Absorbance was measured at 570 nm.

[2] = biological target: T3, human (h) natriuretic peptide receptor A (hNPR-A) (Homo sapiens, UniProt P16066); experiment: AlphaScreen assay for cGMP: proBNP-mediated NPR-A activity; assay type: cell-based; settings: conc. response of compound + 2 nM proBNP
T3 construct: expressed in transfected cells
T3 sequence (P16066 33-1061): T1 sequence (P16066 33-1061)
T3 sequence (P16860 27-134 partner): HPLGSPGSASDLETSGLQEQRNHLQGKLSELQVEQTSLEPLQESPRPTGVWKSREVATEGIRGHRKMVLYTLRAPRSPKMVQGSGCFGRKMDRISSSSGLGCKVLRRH
Protocol: as §1
as §2, with “Cells were stimulated for 20 minutes with agonist before the reactions were stopped (i.e. cells lysed) by adding the AlphaScreen Acceptor bead mix (Acceptor beads-anti-cGMP antibody and 0.5% Tween-20 in 5 mM HEPES buffer at pH 7.4). After 1 hour incubation, the Donor bead mix (Donor beads, biotinylated cGMP, 0.5% Tween-20 in 5 mM HEPES buffer at pH 7.4) was added (40 μl total volume) and incubation continued for 2 hours.” left out

Compound | EC50 [1] | Emax [1] | other results
CC(C)c1ccc(CCNC(=O)Cn2ncc(Cl)c(Cl)c2=O)cc1 [Compound 15, 2-(4,5-dichloro-6-oxopyridazin-1(6H)-yl)-N-(4-isopropylphenethyl)acetamide] | 794 nM | 27.8% | 
O=C(Cn1ncc(Cl)cc1=O)c1ccc(Cl)cc1 [Compound 4, 5-chloro-2-(2-(4-chlorophenyl)-2-oxoethyl)pyridazin-3(2H)-one] | 5010 nM | 35.2% | 
O=C(Cn1ncc(Cl)c(Cl)c1=O)Nc1cnn(-c2ccccc2)c1 [Compound 19, 2-(4,5-dichloro-6-oxopyridazin-1(6H)-yl)-N-(1-phenyl-1H-pyrazol-4-yl)acetamide] | 1000 nM | 45.7% | 
O=C(Cn1ncc(Cl)c(Cl)c1=O)NC1CC1c1cnn(-c2ccccc2)c1 (racemic) [Compound 18, rac-2-(4,5-dichloro-6-oxopyridazin-1(6H)-yl)-N-((1R,2S)-2-(1-phenyl-1H-pyrazol-4-yl)cyclopropyl)acetamide] | 200 nM | 30.7% | 
O=C(Cn1ncc(Br)c(Br)c1=O)c1ccc(Cl)cc1 [Compound 10] | 79.4 nM | 37% | 
O=C(Cn1ncc(Cl)c(Cl)c1=O)NCCc1cnn(-c2ccccc2)c1 [Compound 16, 2-(4,5-dichloro-6-oxopyridazin-1(6H)-yl)-N-(2-(1-phenyl-1H-pyrazol-4-yl)ethyl)acetamide] | 794 nM | 41% | 
O=C(Cn1ncc(Cl)cc1=O)c1ccc(Cl)s1 [Compound 8, 5-chloro-2-(2-(5-chlorothiophen-2-yl)-2-oxoethyl) pyridazin-3(2H)-one] | 1580 nM | 27% | 
O=C(Cn1ncc(Cl)c(Cl)c1=O)C12CC3CC(CC(C3)C1)C2 [Compound 1] | 2510 nM | 53.1% | 
O=C(Cn1nccc(Cl)c1=O)c1ccc(Cl)cc1 [Compound 3, 4-chloro-2-(2-(4-chlorophenyl)-2-oxoethyl)pyridazin-3(2H)-one] | 12600 nM | 48.6% | 
O=C(Cn1ncc(Cl)c(Cl)c1=O)NCc1cnn(-c2ccccc2)c1 [Compound 20, 2-(4,5-dichloro-6-oxopyridazin-1(6H)-yl)-N-((1-phenyl-1H-pyrazol-4-yl)methyl)acetamide] | 6310 nM | 49.4% | 

Further lines, with some results ahead:

EC50 [1] | Emax [1] | Compound | other results
3980 nM | 38.6% | COc1ccc(C(=O)Cn2ncc(Cl)c(Cl)c2=O)cc1 [Compound 5, 4,5-dichloro-2-(2-(4-methoxyphenyl)-2-oxoethyl) pyridazin-3(2H)-one] | 
251 nM | 45.3% | O=C(Cn1ncc(Cl)c(Cl)c1=O)c1ccc(Cl)cc1 [Compound 2] | Emax (NPR-A; compound + 50 pM 125I-ANP, response of 50 pM 125I-ANP defined as 100%, read-out: Max Response): 173%; EC50 (NPR-A; conc. response compound + 50 pM 125I-ANP, NPR-A HEK293 cells, read-out: -LogEC50 (compound) (converted)): 2 nM; Fold change in Bmax (NPR-A; saturation binding, conc. response 125I-ANP + 10 μM compound): 2.3; toxicity in MTT assay relative to corresponding dichloro compounds (HeLa cells): lower toxicity; EC50 ([2]; NPR-A-expressing HEK293 cells, read-out: -LOGEC50 (compound) (converted)): 1000 nM; Emax ([2]; percentage of maximum proBNP-mediated cGMP production, read-out: Max response): 99%
2510 nM | 45.4% | Cc1cc(C(=O)Cn2ncc(Cl)c(Cl)c2=O)ccc1Cl [Compound 14, 4,5-dichloro-2-[2-(4-chloro-3-methyl-phenyl)-2-oxo-ethyl]pyridazin-3-one] | 
398 nM | 44.3% | O=C(Cn1ncc(Cl)c(Cl)c1=O)c1ccc(Cl)c(F)c1 [Compound 12, 4,5-dichloro-2-[2-(4-chloro-3-fluoro-phenyl)-2-oxo-ethyl]pyridazin-3-one] | 
200 nM | 42.5% | O=C(Cn1ncc(Cl)c(Cl)c1=O)c1ccc(Cl)cc1Cl [Compound 11, 4,5-dichloro-2-[2-(2,4-dichlorophenyl)-2-oxo-ethyl]pyridazin-3-one] | 
794 nM | 39.4% | O=C(Cn1ncc(Cl)c(Cl)c1=O)NCCc1c(Cl)cccc1Cl [Compound 17, 2-(4,5-dichloro-6-oxopyridazin-1(6H)-yl)-N-(2,6-dichlorophenethyl)acetamide] | 
251 nM | 33.4% | O=C(Cn1ncc(Cl)c(Cl)c1=O)c1ccc(Cl)s1 [Compound 7] | 
100 nM | 41% | Cc1cc(Cl)ccc1C(=O)Cn1ncc(Cl)c(Cl)c1=O [Compound 13, 4,5-dichloro-2-[2-(4-chloro-2-methyl-phenyl)-2-oxo-ethyl]pyridazin-3-one] | 
2510 nM | 44.1% | N#Cc1ccc(C(=O)Cn2ncc(Cl)c(Cl)c2=O)cc1 [Compound 6, 4-(2-(4,5-dichloro-6-oxopyridazin-1(6H)-yl)acetyl) benzonitrile] | 
1260 nM | 27.7% | O=C(Cn1ncc(Cl)c(Cl)c1=O)c1ccc2c(c1)CCCC2 [Compound 9] | 
